Experimental data from US12116358B2, “Substituted indoles and methods of use thereof” (EPIZYME, INC., priority 2018, dated 2024).
Read-outs that look alike come from different tables or passages of the source.

How the values were obtained:
SETD2(1434-1711) = target: T1, SETD2(1434-1711) (Homo sapiens, UniProt Q9BYW2); experiment: SETD2 (1434-1711) assay; format: biochemical; details: read-out: SETD2 (1434-1711)
T1 construct: SETD2 (1434-1711) Assay; catalogue N/A
T1 sequence (Q9BYW2 1434-1711): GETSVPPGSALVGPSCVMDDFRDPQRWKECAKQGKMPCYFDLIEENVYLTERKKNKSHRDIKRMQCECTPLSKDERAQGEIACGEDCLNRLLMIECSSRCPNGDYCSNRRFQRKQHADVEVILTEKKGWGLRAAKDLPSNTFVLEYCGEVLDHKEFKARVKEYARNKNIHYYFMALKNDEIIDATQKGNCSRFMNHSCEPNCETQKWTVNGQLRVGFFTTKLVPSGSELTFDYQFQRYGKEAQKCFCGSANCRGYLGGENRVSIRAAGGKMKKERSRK

H3K36me3 in A549 cells = experiment: In-Cell Western (ICW) assay of SETD2 inhibitors (A549 assay); format: cell-based, human; details: A549 cells, read-out: SETD2 A549
Procedure, shortened: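 H3K36me3 In-Cell Western: cells exposed to compound for 3 days at 4,000 cells/well, 37° C. DRAQ5 (1:1000) marked cell number, with 700/800-channel Licor read-out.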

`Cc1cc(C(=O)NC2CCN(C)CC2)c(C)nc1C(NC(=O)c1cc2cccc(C)c2[nH]1)C1CC1` (stereo not drawn) [compound 529] was tested. Which IC50 (SETD2(1434-1711)) did it give?
Its IC50 is 8.6 µM.

What about the IC50 (H3K36me3 in A549 cells) of the same molecule?
Its IC50 is 24.9 µM.

What does the source list for `Cc1ccc(F)c2cc(C(=O)Nc3cccc(N4CCC(N5CCC(N)CC5)CC4)c3)[nH]c12` [compound 530]?
IC50 (SETD2(1434-1711)): 0.007 µM; IC50 (H3K36me3 in A549 cells): > 25 µM

Which IC50 (SETD2(1434-1711)) does the source give for `Cc1cccc2cc(C(=O)Nc3cccc(N4CCC(NCCN)CC4)n3)[nH]c12` [compound 531] here?
The IC50 was 0.2 µM.

What about the IC50 (H3K36me3 in A549 cells; Homo sapiens) of the same molecule?
The IC50 was over 25 µM.

Which results are given for `Cc1ccc(F)c2cc(C(=O)Nc3cccc(-c4n[nH]c(=O)[nH]4)c3)[nH]c12` [compound 532]?
IC50 (SETD2(1434-1711)): 0.2 µM; IC50 (H3K36me3 in A549 cells): > 25 µM

What does the source list for `Cc1cccc2cc(C(=O)Nc3ccc4ncncc4c3)[nH]c12` [compound 533]?
IC50 (SETD2(1434-1711)): 0.4 µM; IC50 (H3K36me3 in A549 cells): > 25 µM

How did the IC50 (SETD2(1434-1711)) turn out when `Cc1cc(C(=O)NC2CNC2)cnc1C(NC(=O)c1cc2cccc(C)c2[nH]1)C1CC1` (stereo not drawn) [compound 535] was run?
The IC50 was 0.6 µM.

What about the IC50 (H3K36me3 in A549 cells) of the same molecule?
Its IC50 is over 25 µM.

What does the source list for `Cc1ccc(F)c2cc(C(=O)Nc3ccc4ncc(CN(C)C)n4c3)[nH]c12` [compound 536]?
IC50 (SETD2(1434-1711)): 0.8 µM; IC50 (H3K36me3 in A549 cells): > 25 µM

For `CCN(CC)C1CCc2cc(NC(=O)c3cc4cccc(C)c4[nH]3)ccc2C1` (stereo not drawn) [compound 537], which IC50 (SETD2(1434-1711)) is on record?
The IC50 was 0.9 µM.

What about the IC50 (H3K36me3 in A549 cells; Homo sapiens) of the same molecule?
The IC50 was over 25 µM.

Which IC50 (SETD2(1434-1711)) does the source give for `Cc1cccc2cc(C(=O)Nc3ccc4nc[nH]c(=O)c4c3)[nH]c12` [compound 538] here?
The IC50 was 1 µM.

And the IC50 (H3K36me3 in A549 cells; Homo sapiens)?
The IC50 was over 25 µM.

Which results are given for `Cc1ccc(F)c2cc(C(=O)Nc3cccc(N4CCN(C)CC4c4ccccc4)c3)[nH]c12` (stereo not drawn) [compound 539]?
IC50 (SETD2(1434-1711)): 1.6 µM; IC50 (H3K36me3 in A549 cells): > 25 µM

With `Cc1ccc(F)c2cc(C(=O)NCCc3ccccc3N3CCN(C)CC3)[nH]c12` [compound 540] as the molecule, how does the IC50 (SETD2(1434-1711)) read?
Its IC50 is 1.7 µM.

And the IC50 (H3K36me3 in A549 cells; Homo sapiens)?
Its IC50 is over 25 µM.

How did the IC50 (SETD2(1434-1711)) turn out when `Cc1cccc2cc(C(=O)Nc3ccc4nc(CN5CCNCC5)ncc4c3)[nH]c12` [compound 541] was run?
The IC50 was 2 µM.

And the IC50 (H3K36me3 in A549 cells)?
The IC50 was over 25 µM.

`Cc1cc(CC(=O)O)cnc1C(NC(=O)c1cc2c(F)ccc(C)c2[nH]1)C1CC1` (stereo not drawn) [compound 542] was tested. Which IC50 (SETD2(1434-1711)) did it give?
The IC50 was 2.4 µM.

And the IC50 (H3K36me3 in A549 cells; Homo sapiens)?
The IC50 was over 25 µM.

With `Cc1cccc2cc(C(=O)NC3CCN(C(=O)CCCN)CC3C)[nH]c12` (stereo not drawn) [compound 543] as the molecule, how does the IC50 (SETD2(1434-1711)) read?
Its IC50 is 2.6 µM.

What about the IC50 (H3K36me3 in A549 cells) of the same molecule?
Its IC50 is over 25 µM.

What does the source list for `Cc1cc(C(=O)O)cnc1C(NC(=O)c1cc2c(F)ccc(C)c2[nH]1)C1CC1` (stereo not drawn) [compound 544]?
IC50 (SETD2(1434-1711)): 2.9 µM; IC50 (H3K36me3 in A549 cells): > 25 µM

How did the IC50 (SETD2(1434-1711)) turn out when `Cc1ccc(F)c2cc(C(=O)Nc3cccc(-c4noc(=O)[nH]4)c3)[nH]c12` [compound 545] was run?
Its IC50 is 3.1 µM.

And the IC50 (H3K36me3 in A549 cells)?
Its IC50 is over 25 µM.

Which IC50 (SETD2(1434-1711)) does the source give for `Cc1cccc2cc(C(=O)Nc3ccc4nc(CN(C)C)cn4c3)[nH]c12` [compound 546] here?
Its IC50 is 3.9 µM.

And the IC50 (H3K36me3 in A549 cells; Homo sapiens)?
The IC50 was over 25 µM.

What does the source list for `Cc1ccc(F)c2cc(C(=O)Nc3cccc(N4CCOc5ccccc54)c3)[nH]c12` [compound 547]?
IC50 (SETD2(1434-1711)): 4 µM; IC50 (H3K36me3 in A549 cells): > 25 µM

For `Cc1ccc(F)c2cc(C(=O)Nc3ccn(C4CCN(C)CC4)n3)[nH]c12` [compound 548], which IC50 (SETD2(1434-1711)) is on record?
Its IC50 is 5.1 µM.

What about the IC50 (H3K36me3 in A549 cells) of the same molecule?
Its IC50 is over 25 µM.

With `Cc1cccc2cc(C(=O)NCCc3ccccc3N3CCC(CCN(C)C)CC3)[nH]c12` [compound 549] as the molecule, how does the IC50 (SETD2(1434-1711)) read?
Its IC50 is 5.8 µM.

And the IC50 (H3K36me3 in A549 cells)?
The IC50 was over 25 µM.

With `Cc1ccc(F)c2cc(C(=O)NC(C(=O)NCc3ccccc3)c3ccccn3)[nH]c12` (stereo not drawn) [compound 550] as the molecule, how does the IC50 (SETD2(1434-1711)) read?
The IC50 was 6.5 µM.

And the IC50 (H3K36me3 in A549 cells)?
The IC50 was over 25 µM.

`Cc1cc2ncc(CN(C)C)n2cc1NC(=O)c1cc2cccc(C)c2[nH]1` [compound 551] was tested. Which IC50 (SETD2(1434-1711)) did it give?
The IC50 was 6.7 µM.

And the IC50 (H3K36me3 in A549 cells)?
Its IC50 is over 25 µM.

Which IC50 (SETD2(1434-1711)) does the source give for `Cc1cccc2cc(C(=O)NC3CC4CCC(C3)N4C(=O)CCCN)[nH]c12` (stereo not drawn) [compound 552] here?
The IC50 was 7.7 µM.

And the IC50 (H3K36me3 in A549 cells)?
The IC50 was over 25 µM.

How did the IC50 (SETD2(1434-1711)) turn out when `NCCC(=O)NC1CCC(NC(=O)c2cc3cccc(Br)c3[nH]2)CC1` (stereo not drawn) [compound 553] was run?
Its IC50 is 8.3 µM.

And the IC50 (H3K36me3 in A549 cells)?
Its IC50 is over 25 µM.

Which IC50 (SETD2(1434-1711)) does the source give for `Cc1cccc2cc(C(=O)NCc3ccccc3N3CCN(C)CC3)[nH]c12` [compound 554] here?
The IC50 was 8.7 µM.

And the IC50 (H3K36me3 in A549 cells)?
The IC50 was over 25 µM.

`Cc1ccc(F)c2cc(C(=O)Nc3cccc(N4CCN(C5CC5)c5ccccc54)c3)[nH]c12` [compound 555] was tested. Which IC50 (SETD2(1434-1711)) did it give?
The IC50 was 9.2 µM.

What about the IC50 (H3K36me3 in A549 cells) of the same molecule?
Its IC50 is over 25 µM.

For `COC(=O)CC(NC(=O)c1cc2cccc(C)c2[nH]1)c1ccccc1F` (stereo not drawn) [compound 556], which IC50 (SETD2(1434-1711)) is on record?
Its IC50 is 9.9 µM.

And the IC50 (H3K36me3 in A549 cells)?
Its IC50 is over 25 µM.
